Like-named read-outs stand apart in the source and are kept apart here.
Assays:
[1] = target: T1, PNR (NR2E3) (Homo sapiens, UniProt Q9Y5X4); experiment: Gal4-hybrid reporter gene assay PNR; assay type: cell-based; conditions: selected test concentration (Figure 3)
T1 construct: encoding the hinge region and the LBD of the canonical isoform of the respective human nuclear receptors; expressed in transfected cells; host or cells: HEK293T
T1 sequence (Q9Y5X4 169-410 limits assumed): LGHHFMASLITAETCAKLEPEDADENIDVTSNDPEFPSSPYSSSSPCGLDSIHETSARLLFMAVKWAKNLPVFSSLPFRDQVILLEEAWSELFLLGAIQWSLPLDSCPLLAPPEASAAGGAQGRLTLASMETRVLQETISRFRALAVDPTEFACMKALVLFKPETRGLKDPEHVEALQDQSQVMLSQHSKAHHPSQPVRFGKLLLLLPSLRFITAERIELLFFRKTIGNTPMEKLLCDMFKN
Method: Gal4-hybrid reporter gene assays were performed as described previously using the plasmids pFA-CMV-hTHRα-LBD,[170] pFA-CMV-hRARα-LBD,[171] pFA-CMV-hPPARα-LBD,[172] pFA-CMV-hPPARγ-LBD,[172] pFA-CMV-hPPARδ-LBD,[172] pFA-CMV-revERBα-LBD,[158] pFA-CMV-hRORα-LBD,[173] pFA-CMV-hLXRα-LBD,[118] pFA-CMV-hFXR-LBD,[174] pFA-CMV-hVDR-LBD,[171] pFA-CMV-hCAR-LBD,[171] pFA-CMV-hHNF4α-LBD,[110] pFA-CMV-hRXRα-LBD,[175] pFA-CMV-hTR2-LBD,[102] pFA-CMV-hTR4-LBD,[102] pFA-CMV-hTLX-LBD,[102] pFA-CMV-hNR2E3-LBD,[102] pFA-CMV-hNur77-LBD,[176] pFA-CMV-hSF1-LBD[158] encoding the hinge region and the LBD of the canonical isoform of the respective human nuclear receptors. pFR-Luc (Stratagene, La Jolla, CA, USA) was used as a reporter plasmid, and pRL-SV40 (Promega, Madison, WI, USA) was used for normalization of transfection efficiency and cell growth. HEK293T cells (German Collection of Microorganisms and Cell Culture GmbH, DSMZ) were cultured in Dulbecco’s modified Eagle’s medium (DMEM), high glucose supplemented with 10% fetal calf serum (FCS), sodium pyruvate (1 mM), penicillin (100 U/mL), and streptomycin (100 μg/mL) at 37 °C and 5% CO2 and seeded in 96-well plates (3 × 10^4 cells/well). The medium was changed to Opti-MEM without supplements, and the cells were transiently transfected with one pFA-CMV-hNR-LBD clone, pFR-Luc, and pRL-SV40 using Lipofectamine LTX reagent (Invitrogen, Thermo Fisher Scientific) according to the manufacturer’s instructions. Five hours after transfection, cells were incubated with the test compounds in Opti-MEM supplemented with penicillin (100 U/mL), streptomycin (100 μg/mL), and 0.1% DMSO. Each sample was set up in duplicates and tested in at least three independent experiments. After 16 h incubation, luciferase activity was measured using the Dual-Glo Luciferase Assay System (Promega) according to the manufacturer’s protocol on a Tecan Spark luminometer (Tecan Deutschland GmbH, Crailsheim, Germany). Firefly luminescence was divided by Renilla luminescence and multiplied by 1000 resulting in relative light units (RLUs) to normalize for transfection efficiency and cell growth. Fold activation was obtained by dividing the mean RLU of the test compound by the mean^a RLU of the untreated control, and relative activation was calculated by dividing the fold activation of a test sample by the fold activation of the respective reference agonist. Antagonistic effects were evaluated by coincubation of the test compound with the respective reference ligand.

[2] = system: nuclear receptors; experiment: Selectivity profiling in Gal4-hybrid reporter gene assay panel; assay type: cell-based, human; conditions: at active concentration
Method: Compounds were tested at concentrations around EC90 according to the literature or at the highest nontoxic concentration (from the multiplex toxicity assay). […] (b) Selectivity profiling of NR2 modulators in a representative panel of nuclear receptors outside the NR2 family. […] Effects <5% of the respective reference ligands were considered as not relevant and omitted. Only effects are shown that are statistically significant against VP16 ctrl (Figure S3); n = 3.

[3] = system: COS-7 cells; experiment: Multiplex toxicity assay; assay type: cell-based; conditions: 24 h, at active concentration
Method: COS-7 cells (DSMZ #ACC 60) were cultured at 37°C and 5% CO2 in DMEM high glucose medium supplemented with sodium pyruvate (1 mM), penicillin (100 U/mL), streptomycin (100 µg/mL), and 10% fetal calf serum (FCS). After aspirating the wells, the cells were seeded at 1x10^5 cells per well in complete culture medium. […] Each sample was prepared in at least 4 biologically independent replicates. After incubation for 24 h, the wells were aspirated and incubated for 30 min with stimulation medium containing 1 µM NucView® 405 fluorogenic caspase-3 substrate (#10405, Biotium, Fremont, USA) and Live-or-Dye Nuc-Fix Red (0.05x, Biotium, Inc., Fremont, CA, 1691 USA) to detect apoptosis and necrosis, respectively. After incubation, a total of 6 fluorescence images per well at 10x magnification were taken to detect NucView®-positive (Ex: 381–400 nm, Em: 414–450 nm) and Live-or-Dye-positive cells (Ex: 543−566 nm, Em: 580−611 nm) using on a Tecan Spark Cyto (Tecan Group AG). Reference readings for background correction and detection of auto-fluorescence were taken at 414–450 nm prior to staining. Thereafter, wells were aspirated, the cells were incubated for 3 h with 90 µL culture medium (0.2% FCS) and 10 µL Cell Counting Kit-8 solution (CCK-8, MedChem Express #HY-K0301), and absorbance was measured at 1, 2, and 3h of incubation at 450 nm on a Tecan Spark Cyto to assess metabolic activity of the cells. Before drug administration, after the first medium exchange, 24 h after drug administration, and after fluorescence imaging cell confluence was assessed using the Tecan Spark Cyto, to account for changes in cell confluence due to drug administration and cell handling. The number of apoptotic cells, metabolic activity, and changes in cell confluence in response to drug treatment were all normalized to the vehicle control of each biological replicate individually.

[4] = system: ATF6; experiment: ATF6 activity assay; assay type: cell-based; conditions: tunicamycin treated Hela ATF6 reporter cells
Text: Next, we evaluated the potential impact of the NR2 modulator set on endoplasmic reticulum (ER) stress in an ATF6 activity assay (Fig. 4b). The activating transcription factor 6 (ATF6) participates in the unfolded protein response and is activated under ER stress.[164] Tunicamycin-induced ATF6 activity was not affected by RXR and TLX modulators but was reduced by the inverse PNR agonists 22 and 23.
Hela cells containing a Renilla luciferase reporter gene for ATF6 activity (ATF6 Leeporter™ Luciferase Reporter-HeLa Cell Line, Abeomics Inc.; #14-138ACL) were cultured in DMEM supplemented with 10% heat-inactivated FCS, penicillin (100 U/mL), streptomycin (100 μg/mL) and puromycin (3 µg/mL) at 37°C and 5% (v/v) CO2 and seeded in 96-well plates (1 × 10^5 per well). After 24 h, the cells were incubated with the test compounds solubilized with 0.1% DMSO in the same medium without puromycin. After 4 h of incubation, tunicamycin (100 ng/mL) was added. After another 18 h of incubation, cells were assayed for renilla luminescence using DualGlo reagent (Promega) on a Tecan SPARK Cyto (Tecan). Test samples were normalized to the 0.1% DMSO control.

[5] = system: PNR; conditions: reporter gene assay; cited from earlier work
[6] = system: Gal4-VP16; parameters: method as in PMID 16834531; conditions: cited from earlier work
[7] = system: rhodopsin expression; parameters: method as in PMID 29148976, PMID 27893103; conditions: cited from earlier work; for rhodopsin expression: murine retinal cells, immunofluorescence and qRT-PCR
[8] = system: human insulin promoter; conditions: insulin promoter assay, cited from earlier work
[9] = target: HNF4α; parameters: method as in PMID 22840769; conditions: cited from earlier work
[10] = system: HNF4α and a set of its target genes; parameters: method as in PMID 22840769; conditions: T6PNE cells; cited from earlier work
[11] = target: T2, HNF4α (Homo sapiens, UniProt P41235); experiment: Gal4-hybrid reporter gene assay HNF4α; conditions: 3 µM, HEK293T
T2 sequence (P41235 147-377 limits assumed): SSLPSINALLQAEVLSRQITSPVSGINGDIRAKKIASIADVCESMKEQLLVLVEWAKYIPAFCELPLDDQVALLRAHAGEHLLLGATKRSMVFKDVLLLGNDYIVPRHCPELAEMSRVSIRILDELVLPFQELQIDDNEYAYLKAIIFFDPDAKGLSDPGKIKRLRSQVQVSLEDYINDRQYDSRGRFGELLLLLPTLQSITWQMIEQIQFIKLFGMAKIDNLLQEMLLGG

[12] = system: NR2E3; parameters: method as in PMID 16879962; conditions: reporter gene assay, cited from earlier work
[13] = cited from earlier work
[14] = parameters: method as in PMID 31298602, PMID 30702885; conditions: cited from earlier work
[15] = target: PNR; parameters: method as in PMID 29148976; conditions: ITC, cited from earlier work
[16] = system: COUP-TF2; parameters: method as in PMID 32494682; conditions: reporter gene assay; cited from earlier work
[17] = system: HNF4α, RXRα, PPARα, LXRα, GR, PR, ER, RAR, RORγ, AR, and COUP-TF1; parameters: method as in PMID 32494682; conditions: cited from earlier work
[18] = system: COUP-TF2 target genes FOXM1 and CDK1; parameters: method as in PMID 32494682; conditions: prostate cancer cells; cited from earlier work
[19] = target: T3, TLX (Homo sapiens, UniProt Q9Y466); experiment: Gal4-hybrid reporter gene assay TLX; assay type: cell-based; conditions: selected test concentration (Figure 3)
T3 construct: encoding the hinge region and the LBD of the canonical isoform of the respective human nuclear receptors; expressed in transfected cells; host or cells: HEK293T
T3 sequence (Q9Y466 155-383 limits assumed): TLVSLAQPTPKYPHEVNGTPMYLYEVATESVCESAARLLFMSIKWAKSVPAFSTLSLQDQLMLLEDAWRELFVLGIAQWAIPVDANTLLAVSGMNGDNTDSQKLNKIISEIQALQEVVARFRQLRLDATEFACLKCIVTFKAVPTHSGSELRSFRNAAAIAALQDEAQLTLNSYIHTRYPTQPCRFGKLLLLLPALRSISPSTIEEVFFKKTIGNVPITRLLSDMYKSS

[20] = target: TLX; conditions: DSF assays; cited from earlier work
[21] = system: TLX; conditions: reporter gene assay; read-out: EC50; cited from earlier work
[22] = system: TLX-regulated genes; conditions: human glioblastoma cells (T98G), qRT-PCR; cited from earlier work
[23] = system: TLX expression; conditions: cited from earlier work
[24] = system: HEK293T cells; conditions: cited from earlier work
[25] = microsomes; cited from earlier work

Cc1cc(C)cc(NC(=O)CCc2nc3sc4c(c3c(=O)[nH]2)CCCC4)c1 [compound 22]
PNR modulation [1]: confirmed albeit with rather low efficacy | selectivity over other nuclear receptors [2]: Favorable selectivity profiles | cytotoxicity [3]: lack of cytotoxicity | tunicamycin-induced ATF6 activity [4]: reduced | IC50 [5]: 250 nM | activity in control experiments using Gal4-VP16 [6]: inactive | rhodopsin expression [7]: dose-dependent reduction

Cc1nc2ccccc2n1S(=O)(=O)c1cc([N+](=O)[O-])ccc1Cl [compound 1]
IC50 [8]: 900 nM | IC50 ([8]; listed as BIM5078 (1)): 930 nM | Kd ([9]; Try/Trp fluorescence quenching assays): 12 nM | EC50 ([9]; direct binding, read-out: EC50 of quenching of intrinsic Tyr/Trp fluorescence of HNF4α): 11.9 nM | expression of HNF4α and a set of its target genes [10]: suppress the expression | effects on HNF4 activity [11]: no effects

O=C(Nc1ccc(-c2nc3ccc(NC(=O)C4CC4)cc3[nH]2)cc1)c1ccccc1Cl [compound 24]
EC50 ([12]; read-out: EC50 (first value of cell)): 141 nM | EC50 ([12]; read-out: EC50 (second value of cell)): 35 nM

C=C(c1ccc(C(=O)O)cc1)c1cc2c(cc1C)C(C)(C)CCC2(C)C [compound 6, bexarotene]
adverse effects associated with clinical use [13]: elevated triglyceride and cholesterol levels, leukopenia, hypothyroidism, and an increased risk of acute pancreatitis | lipophilicity [14]: highly lipophilic

COc1cc2nc(CN3CC=C(c4ccccc4)CC3)nc(O)c2cc1OC [compound 23]
PNR modulation [1]: confirmed albeit with rather low efficacy | selectivity over other nuclear receptors [2]: Favorable selectivity profiles | cytotoxicity [3]: lack of cytotoxicity | tunicamycin-induced ATF6 activity [4]: reduced | IC50 [5]: 70 nM | activity in control experiments using Gal4-VP16 [6]: inactive | Rho mRNA expression [7]: decreased | rhodopsin expression [7]: dose-dependent reduction | Kd [15]: 67000 nM | Kd ([15]; listed as Photoregulin3 (23)): 64000 nM

COc1ccc(CCNc2ncnc3sccc23)cc1OC [compound 28]
IC50 [16]: 2800 nM | interaction with related NRs in pulldown assay [17]: no relevant interaction | expression of COUP-TF2 target genes FOXM1 and CDK1 [18]: altered expression

Cc1cc(C(=O)N2CCN(C(c3ccccc3)c3ccccc3)CC2)nn1C [compound 15]
TLX modulation [19]: not observed | Kd [20]: 650 nM | EC50 [21]: 1000 nM | SIRT, SLC1a1 and p21 induction [22]: trend toward SIRT and SLC1a1 but not p21 induction | TLX expression [23]: not affected | toxicity in WST-1 assay [24]: Low toxicity | t1/2 against microsomal degradation [25]: < 15 min

From publication PMC7617459, “Comparative Evaluation and Profiling of Chemical Tools for the Nuclear Hormone Receptor Family 2” (ACS pharmacology & translational science, 2025)
